# Test results: PMC11087588, “Genetic and functional diversity of β-N-acetylgalactosamine-targeting glycosidases expanded by deep-sea metagenome analysis” (Nature Communications, 2024)
# Tests used:
# [1] = target: T1, NgaDssm (metagenome, UniProt Z9PL66MBS5); experiment: crystal structure of complex; assay type: binding; conditions: 5 mM ligand in crystallization; active site, oxazolinium intermediate analogue
# T1 construct: signal peptide removed; pET-47b(+), E. coli BL21 Star (DE3); His tag cut with HRV3C; monomer
# T1 sequence (Z9PL66MBS5 4-542): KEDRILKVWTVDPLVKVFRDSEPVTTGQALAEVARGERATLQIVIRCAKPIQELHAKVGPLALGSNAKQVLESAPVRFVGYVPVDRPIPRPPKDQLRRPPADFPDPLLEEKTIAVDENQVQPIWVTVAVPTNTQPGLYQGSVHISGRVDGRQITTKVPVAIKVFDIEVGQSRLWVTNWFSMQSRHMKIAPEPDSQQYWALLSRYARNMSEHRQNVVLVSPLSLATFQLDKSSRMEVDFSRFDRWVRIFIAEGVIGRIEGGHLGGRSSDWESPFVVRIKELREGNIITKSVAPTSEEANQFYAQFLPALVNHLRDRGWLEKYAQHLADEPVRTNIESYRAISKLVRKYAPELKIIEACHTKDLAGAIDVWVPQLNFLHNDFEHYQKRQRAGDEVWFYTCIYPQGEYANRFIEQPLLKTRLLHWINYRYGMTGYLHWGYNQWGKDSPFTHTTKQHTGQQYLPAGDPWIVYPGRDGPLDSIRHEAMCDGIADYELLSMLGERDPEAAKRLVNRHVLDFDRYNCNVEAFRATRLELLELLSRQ
# [2] = target: T2, NgaP2 (Paenibacillus sp. TS12, UniProt A0AAT8XUB3); experiment: crystal structure of complex; assay type: binding; conditions: 5 mM ligand in crystallization; active site, oxazolinium intermediate analogue
# T2 construct: cloned from genomic DNA, pET-47b(+), E. coli BL21 Star (DE3); His tag cut with HRV3C; monomer; not the GH123 NgaP of the same strain
# T2 sequence (A0AAT8XUB3 4-581): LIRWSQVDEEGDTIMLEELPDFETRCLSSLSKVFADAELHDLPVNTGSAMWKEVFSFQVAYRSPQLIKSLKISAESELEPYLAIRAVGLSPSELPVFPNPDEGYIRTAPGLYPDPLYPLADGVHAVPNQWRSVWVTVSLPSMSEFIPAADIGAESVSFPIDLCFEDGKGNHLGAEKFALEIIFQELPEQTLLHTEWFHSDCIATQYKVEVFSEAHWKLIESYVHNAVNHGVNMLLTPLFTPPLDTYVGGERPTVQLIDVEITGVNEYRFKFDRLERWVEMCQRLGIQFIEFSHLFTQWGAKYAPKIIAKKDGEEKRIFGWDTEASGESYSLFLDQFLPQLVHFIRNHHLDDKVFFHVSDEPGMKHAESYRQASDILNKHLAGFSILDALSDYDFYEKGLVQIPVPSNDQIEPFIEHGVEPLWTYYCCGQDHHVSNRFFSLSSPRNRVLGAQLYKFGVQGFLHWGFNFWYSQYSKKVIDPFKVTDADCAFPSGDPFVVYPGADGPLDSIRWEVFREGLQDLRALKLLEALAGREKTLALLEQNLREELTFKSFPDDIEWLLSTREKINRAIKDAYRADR
smiles,measurement,setting,value
CC1=N[C@@H]2[C@@H](O)[C@@H](O)[C@@H](CO)O[C@@H]2S1 [GalNAc-thiazoline],crystal structure of complex,[1],"the structures of the NgaAt, NgaDssm, and NgaP2 complexes with GalNAc-thiazoline were successfully characterized"
same,crystal structure of complex,[2],"the structures of the NgaAt, NgaDssm, and NgaP2 complexes with GalNAc-thiazoline were successfully characterized"
